Laboratory results taken from patent US11697650B2, “Compounds having tetrahydroindolizine-1-carboxamide as BCL-2 inhibitors” (Eil Therapeutics, Inc., priority 2021, dated 2023).

What was measured:
BCL-2 = BCL-2 (Homo sapiens (Human), UniProt P10415); assay: BCL-2 TR-FRET Assay (primary PPI inhibition); format: binding; details: 60 min incubation; read-out: BCL2 (IC50 code, BCL-2 TR-FRET)
Experimental: BCL-2 TR-FRET Assay (BPS Bioscience, #50222)
(§1) The following assay concentrations and times were used: 3 ng BCL-2, 5 μl of 1:100 anti-His Tb-labeled donor, 5 μl of 1:100 Dye-labeled acceptor, 5 μl of 1:40 BCL-2 Peptide Ligand, and 2 ul of test compound, with 60 min incubation time. The results of the assay were read using a Clariostar (BMG Labtech) plate reader with the following parameters: TR FRET, 340ex/620 and 665em; 60 μsec Delay; and 500 μsec integration.

BCL-XL = BCL-XL (Homo sapiens (Human), UniProt Q07817); assay: BCL-XL TR-FRET Assay (primary PPI inhibition); format: binding; details: 60 min incubation; read-out: BCLxL (IC50 code, BCL-XL TR-FRET)
Chain of BCL-XL (Q07817 whole entry): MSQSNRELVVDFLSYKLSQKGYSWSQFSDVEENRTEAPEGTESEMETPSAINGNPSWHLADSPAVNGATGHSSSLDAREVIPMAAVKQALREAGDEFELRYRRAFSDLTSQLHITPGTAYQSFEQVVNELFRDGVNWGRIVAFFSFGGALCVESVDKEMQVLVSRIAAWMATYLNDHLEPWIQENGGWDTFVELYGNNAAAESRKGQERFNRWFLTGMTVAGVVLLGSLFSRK
Experimental: BCL-XL TR-FRET Assay (BPS Bioscience, #50223)
as §1, with “used: 10.5” for “used: 3”, “ng BCL-XL,” for “ng BCL-2,”, “of 1:80 BCL-XL” for “of 1:40 BCL-2”, “2 μl” for “2 ul”

RS4-11 cells = assay: Cell viability assay (CellTiter-Glo), RS4-11; format: cell-based; details: Homo sapiens, 72 h, 3 days, read-out: RS4-11 (CC50 code)
Experimental: (§2) Culture medium for HEK293—DMEM (PanEco, Cat #C420) was used. RPMI-1640 (PanEco, Cat #C363) was used for the rest of the cell lines.
(§3) Compounds were prepared as 200× stocks with serial dilution in 100% DMSO with a final concentration of 1×.
(§4) […] were dispersed in 40 μL aliquots in 384-well plates at a concentration of 2000 cells per well for HEK293 and at a concentration of 4000 cells per well for the rest of the cell lines using a robotic station Biomek (Beckman). Before adding compounds, the cells were incubated at 37° C. (HEK293 were incubated for a day before adding compounds).
(§5) A dilution plate was prepared by pouring 78 μL of the appropriate culture medium using a robotic station Biomek (Beckman). Sequentially, using a robotic station, 2 μL of substances were taken and added to 78 μL of culture medium (dilution of compounds 40×). 10 μL aliquots were taken and added to the plates of the cells (dilution of compounds 5×). The plates were incubated for 3 days at a temperature 37° C. After 3 days, 10 μL of CellTiter-Glo (Promega) was added to the cells and the luminescence was measured.

MOLT-4 cells = assay: Cell viability assay (CellTiter-Glo), MOLT-4; format: cell-based; details: Homo sapiens, 72 h, 3 days, read-out: MOLT-4 (CC50 code)
Experimental: as §2, §3, §4, §5

[1] = Cell viability assay (CellTiter-Glo), HEK293; format: cell-based; details: human, HEK293 cells, read-out: HEK293 (CC50 code)
Experimental: as §2, §3, §4, §5

[2] = test system: caspase-3 and -7 activities in RS4-11 cells; assay: Caspase-3/7 activation (Caspase-Glo 3/7) in RS4-11 cells; format: cell-based; details: Homo sapiens, 3.5 h incubation, read-out: Cas-3/7 (EC50 code)
Experimental: The Caspase-Glo 3/7 Assay is homogeneous, luminescent assay that measures caspase-3 and -7 activities. The assay provides a luminogenic caspase-3/7 substrate, which contains the tetrapeptide sequence DEVD, in a reagent optimized for caspase activity.
Incubate RS4-11 cells with varying concentrations of test compounds for 3.5 h in a humidified incubator at 37° C. and 5% CO2 and 30 min at r.t. Add 15 μl Caspase-Glo reagent to each well and incubate the plate for 30 min at r.t. Read on ClarioStar Plus instrument.
Promega Caspase-Glo (Promega, #8212); Frozen RS4-11 cells; 384-well white plate (Corning, #3570).
ClarioStar Plus; Biomek FX for liquid handling (Beckman Coulter).

Chain of BCL-2 (P10415 whole entry): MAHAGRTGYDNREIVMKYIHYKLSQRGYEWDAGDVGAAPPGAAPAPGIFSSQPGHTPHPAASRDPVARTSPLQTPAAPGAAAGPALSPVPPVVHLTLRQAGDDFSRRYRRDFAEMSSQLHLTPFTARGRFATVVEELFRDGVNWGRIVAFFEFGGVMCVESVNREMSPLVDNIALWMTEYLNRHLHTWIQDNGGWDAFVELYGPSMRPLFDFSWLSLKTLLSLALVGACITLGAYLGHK

| Structure (SMILES) | IC50 (BCL-2) [nM] | IC50 (BCL-XL) [µM] | CC50 (RS4-11 cells) [nM] | CC50 (MOLT-4 cells) [µM] | CC50 at 3 days [1] [µM] | EC50 [2] [nM] |
| --- | --- | --- | --- | --- | --- | --- |
| O=C(c1cc(-c2cc3c(cc2C(=O)N2Cc4ccccc4C[C@H]2CN2CCOCC2)OCO3)n2c1CCCC2)N(Cc1ccc(OC(F)(F)F)cc1)c1ccc(O)cc1 [Compound 26, N-(4-hydroxyphenyl)-3-(6-{[(3S)-3-(morpholin-4-ylmethyl)-3,4-dihydroisoquinolin-2(1H)-yl]carbonyl}-1,3-benzodioxol-5-yl)-N-[4-(trifluoromethoxy)benzyl]-5,6,7,8-tetrahydroindolizine-1-carboxamide] | > 50 | > 4 | – | – | – | – |
| N#Cc1ccccc1CN(C(=O)c1cc(-c2cc3c(cc2C(=O)N2Cc4ccccc4C[C@H]2CN2CCOCC2)OCO3)n2c1CCCC2)c1ccc(O)cc1 [Compound 47, N-[(2-Cyanophenyl)methyl]-N-(4-hydroxyphenyl)-3-[6-[(3S)-3-(morpholinomethyl)-3,4-dihydro-1H-isoquinoline-2-carbonyl]-1,3-benzodioxol-5-yl]-5,6,7,8-tetrahydroindolizine-1-carboxamide] | > 50 | – | – | – | – | – |
| O=C(c1cc(-c2cc3c(cc2C(=O)N2Cc4ccccc4C[C@H]2CN2CCOCC2)OCO3)n2c1CCCC2)N(Cc1c(F)cccc1C(F)(F)F)c1ccc(O)cc1 [Compound 22, N-[2-fluoro-6-(trifluoromethyl)benzyl]-N-(4-hydroxyphenyl)-3-(6-{[(3S)-3-(morpholin-4-ylmethyl)-3,4-dihydroisoquinolin-2(1H)-yl]carbonyl}-1,3-benzodioxol-5-yl)-5,6,7,8-tetrahydroindolizine-1-carboxamide] | > 50 | > 4 | – | – | – | – |
| O=C(c1cc(-c2cc3c(cc2C(=O)N2Cc4ccccc4C[C@H]2CN2CCOCC2)OCO3)n2c1CCCC2)N(Cc1cccc([N+](=O)[O-])c1)c1ccc(O)cc1 [Compound 49, N-(4-Hydroxyphenyl)-3-[6-[(3S)-3-(morpholinomethyl)-3,4-dihydro-1H-isoquinoline-2-carbonyl]-1,3-benzodioxol-5-yl]-N-[(3-nitrophenyl)methyl]-5,6,7,8-tetrahydroindolizine-1-carboxamide] | > 50 | > 4 | > 200 | > 10 | > 25 | – |
| O=C(O)c1cccc(CN(C(=O)c2cc(-c3cc4c(cc3C(=O)N3Cc5ccccc5C[C@H]3CN3CCOCC3)OCO4)n3c2CCCC3)c2ccc(O)cc2)c1 [Compound 45, 3-[(4-Hydroxy-N-[3-[6-[(3S)-3-(morpholinomethyl)-3,4-dihydro-1H-isoquinoline-2-carbonyl]-1,3-benzodioxol-5-yl]-5,6,7,8-tetrahydroindolizine-1-carbonyl]anilino)methyl]benzoic Acid] | 10 to 50 | 2 to 4 | > 200 | > 10 | > 25 | – |
| CC(C)(C)OC(=O)c1cccc(CN(C(=O)c2cc(-c3cc4c(cc3C(=O)N3Cc5ccccc5C[C@H]3CN3CCOCC3)OCO4)n3c2CCCC3)c2ccc(O)cc2)c1 [Compound 46, tert-Butyl 3-[(4-hydroxy-N-[3-[6-[(3S)-3-(morpholinomethyl)-3,4-dihydro-1H-isoquinoline-2-carbonyl]-1,3-benzodioxol-5-yl]-5,6,7,8-tetrahydroindolizine-1-carbonyl]anilino)methyl]benzoate] | 10 to 50 | – | – | – | – | – |
| Cc1ccc(C(F)(F)F)cc1CN(C(=O)c1cc(-c2cc3c(cc2C(=O)N2Cc4ccccc4C[C@H]2CN2CCOCC2)OCO3)n2c1CCCC2)c1ccc(O)cc1 [Compound 38, N-(4-hydroxyphenyl)-N-[2-methyl-5-(trifluoromethyl)benzyl]-3-(6-{[(3S)-3-(morpholin-4-ylmethyl)-3,4-dihydroisoquinolin-2(1H)-yl]carbonyl}-1,3-benzodioxol-5-yl)-5,6,7,8-tetrahydroindolizine-1-carboxamide] | 10 to 50 | – | – | – | – | – |
| O=C(c1cc(-c2cc3c(cc2C(=O)N2Cc4ccccc4C[C@H]2CN2CCOCC2)OCO3)n2c1CCCC2)N(Cc1ccc(F)cc1)c1ccc(O)cc1 [Compound 17, N-(4-fluorobenzyl)-N-(4-hydroxyphenyl)-3-(6-{[(3S)-3-(morpholin-4-ylmethyl)-3,4-dihydroisoquinolin-2(1H)-yl]carbonyl}-1,3-benzodioxol-5-yl)-5,6,7,8-tetrahydroindolizine-1-carboxamide] | 10 to 50 | – | > 200 | > 10 | > 25 | > 250 |
| Cc1cccc(C)c1CN(C(=O)c1cc(-c2cc3c(cc2C(=O)N2Cc4ccccc4C[C@H]2CN2CCOCC2)OCO3)n2c1CCCC2)c1ccc(O)cc1 [Compound 30, N-(2,6-dimethylbenzyl)-N-(4-hydroxyphenyl)-3-(6-{[(3S)-3-(morpholin-4-ylmethyl)-3,4-dihydroisoquinolin-2(1H)-yl]carbonyl}-1,3-benzodioxol-5-yl)-5,6,7,8-tetrahydroindolizine-1-carboxamide] | > 50 | – | – | – | – | – |
| CCOc1ccc(-c2nc(CN(C(=O)c3cc(-c4cc5c(cc4C(=O)N4Cc6ccccc6C[C@H]4CN4CCOCC4)OCO5)n4c3CCCC4)c3ccc(O)cc3)c(C)o2)cc1 [Compound 27, N-{[2-(4-ethoxyphenyl)-5-methyl-1,3-oxazol-4-yl]methyl}-N-(4-hydroxyphenyl)-3-(6-{[(3S)-3-(morpholin-4-ylmethyl)-3,4-dihydroisoquinolin-2(1H)-yl]carbonyl}-1,3-benzodioxol-5-yl)-5,6,7,8-tetrahydroindolizine-1-carboxamide] | > 50 | > 4 | – | – | – | – |
| O=C(c1cc(-c2cc3c(cc2C(=O)N2Cc4ccccc4C[C@H]2CN2CCOCC2)OCO3)n2c1CCCC2)N(Cc1ccccc1F)c1ccc(O)cc1 [Compound 11, N-(2-fluorobenzyl)-N-(4-hydroxyphenyl)-3-(6-{[(3S)-3-(morpholin-4-ylmethyl)-3,4-dihydroisoquinolin-2(1H)-yl]carbonyl}-1,3-benzodioxol-5-yl)-5,6,7,8-tetrahydroindolizine-1-carboxamide] | – | – | ≤ 100 | > 10 | 10 to 25 | ≤ 100 |
| Cc1cccc(F)c1CN(C(=O)c1cc(-c2cc3c(cc2C(=O)N2Cc4ccccc4C[C@H]2CN2CCOCC2)OCO3)n2c1CCCC2)c1ccc(O)cc1 [Compound 32, N-(2-fluoro-6-methylbenzyl)-N-(4-hydroxyphenyl)-3-(6-{[(3S)-3-(morpholin-4-ylmethyl)-3,4-dihydroisoquinolin-2(1H)-yl]carbonyl}-1,3-benzodioxol-5-yl)-5,6,7,8-tetrahydroindolizine-1-carboxamide] | 10 to 50 | – | – | – | – | – |
| CS(=O)(=O)NC(=O)c1cccc(CN(C(=O)c2cc(-c3cc4c(cc3C(=O)N3Cc5ccccc5C[C@H]3CN3CCOCC3)OCO4)n3c2CCCC3)c2ccc(O)cc2)c1 [Compound 43, N-(4-hydroxyphenyl)-N-{3-[(methylsulfonyl)carbamoyl]benzyl}-3-(6-{[(3S)-3-(morpholin-4-ylmethyl)-3,4-dihydroisoquinolin-2(1H)-yl]carbonyl}-1,3-benzodioxol-5-yl)-5,6,7,8-tetrahydroindolizine-1-carboxamide] | 5 to 10 | 2 to 4 | – | – | – | – |
| O=C(c1cc(-c2cc3c(cc2C(=O)N2Cc4ccccc4C[C@H]2CN2CCOCC2)OCO3)n2c1CCCC2)N(Cc1cccnc1)c1ccc(O)cc1 [Compound 39, N-(4-hydroxyphenyl)-3-(6-{[(3S)-3-(morpholin-4-ylmethyl)-3,4-dihydroisoquinolin-2(1H)-yl]carbonyl}-1,3-benzodioxol-5-yl)-N-(pyridin-3-ylmethyl)-5,6,7,8-tetrahydroindolizine-1-carboxamide] | 5 to 10 | 2 to 4 | > 200 | ≤ 2 | 10 to 25 | – |
